In paper PMC4176448 (The Journal of Infectious Diseases, 2014):

Test system: influenza B virus
Design: species or system human (patient)
Details: human, in vivo, po

## CCOC(=O)C1=C[C@@H](OC(CC)CC)[C@H](NC(C)=O)[C@@H](N)C1 [Oseltamivir, oseltamivir]
  NPAs tested for influenza B virus after oseltamivir treatment: still positive
